55 compounds from US20100069393A1, “METHOD OF TREATMENT AND AGENTS USEFUL FOR SAME” (PRANA BIOTECHNOLOGY LIMITED, priority 2006, published 2010) can be followed below.

Data set [1] is described as follows: In vivo toxicity, visual observations. The settings on record: number of days.
Data set [2] in a line: Neurotoxicity assay: MTS viability of primary cortical neuronal cultures. Format: cell-based, mouse. To be noted: BL6Jx129sv, mouse, primary cortical neuronal cultures, Neuronal cells, read-out: Cytotoxicity (% viable at 1 and 10 uM); for viability at 4 days, 1 uM: test compound 1 uM; for viability at 4 days, 10 uM: test compound 10 uM. As for the experimental part:
Media was then replaced with Neurobasal media (Invitrogen Life Technologies) and B27 supplements (Invitrogen Life Technologies). Cultures were maintained at 37° C. in 5% CO2. Prior to experimentation, the culture medium was replaced with Neurobasal media and B27 minus antioxidants (Invitrogen Life Technologies).
Cell viability is determined using the MTS assay. Culture medium is replaced with fresh neurobasal medium plus B27 supplements minus antioxidants. 1/10th volume MTS solution (Cell Titre 96 Aqueous One, Promega Corporation) and incubated at 37° C., 2 hrs. 200 microlitre aliquots are measured with a spectrophotometer at 560 nm.
Neuronal cortical cells were cultured for five days as per Assay 2 in NB media and B27 supplement.
On day six the test compounds were added to the neuronal cell cultures in NB media and B27 supplement minus antioxidants.
Test compounds were dissolved in 100% DMSO to a concentration of 2.5 mM (10 mM if excess compound was weighed out per vial—then diluted to 2.5 mM). […] Test compounds were not added directly to cells, instead they were added to a 48 well ‘Drug Plate’ as comprised below:
The Drug Plate was incubated at 37° C. for 15 mins. 200 μl of each well was added in triplicate to the corresponding cell plate. The cell plate was incubated at 37 C, for 4 days.
On completion of the assay, 1/10 volume MTS was added per well of plate (i.e. 25 μl/250 μl). The plates were incubated at 37 C for 2 hrs, and then absorbance was read at 560 nm.

Data set [3] is described as follows: Cytotoxicity: viability of M17 cells. To be noted: human, M17 neuroblastoma cells, Cytotoxicity (% viable at 1 and 10 uM); for viability at 1 uM: test compound 1 uM; for viability at 10 uM: test compound 10 uM.

SMILES strings stand for the structures.

In the case of `Cc1cnc(-n2cnc3c(O)c(Cl)cc(Cl)c3c2=O)s1`, in data set [1], the “Toxicity at 30 mg/kg” value is recorded as 10 days, mild signs. In addition, in data set [2], the viability at 4 days, 1 uM stood at 94% and the viability at 4 days, 10 uM came out at 70%.

`O=c1c2ccc(I)c(O)c2ncn1-c1ccc(F)cc1F`: in data set [3], the viability at 1 uM amounted to 90.3% and the viability at 10 uM was found to be 80.3%. The “Toxicity at 30 mg/kg” value in data set [1] is reported as 6 days, 2/4 deaths.

As to `O=c1c2c(Cl)cc(I)c(O)c2ncn1CC1CC1`, in data set [3], the viability at 1 uM was found to be 97.9% and the viability at 10 uM stood at 82.3%. Moreover, the “Toxicity at 10 mg/kg” value in data set [1] (10 mg/kg) was “At 10 mg/kg: 10 days, none”.

Turning to `CN(C)Cc1ccc2c(Cl)cc(I)c(O)c2n1`, in data set [3], the viability at 1 uM was 97.9% and the viability at 10 uM stood at 24.4%. Further, the “Toxicity at 30 mg/kg” value in data set [1] is reported as 1 day, 3/4 deaths.

In the case of `CCCCn1cnc2c(O)c(Cl)cc(Cl)c2c1=O`, in data set [3], the viability at 1 uM was found to be 105% and the viability at 10 uM came out at 95.4%. Moreover, in data set [2], the viability at 4 days, 1 uM is 104% and the viability at 4 days, 10 uM was determined as 85%.

With `O=c1c(-c2ccc(Cl)cc2)cnc2c(O)cccn12`, in data set [3], the viability at 1 uM was 41.2% and the viability at 10 uM was 25.8%. Further, in data set [2], the viability at 4 days, 1 uM is 97% and the viability at 4 days, 10 uM was found to be 42%.

Consider `CCn1cnc2c(O)c(I)ccc2c1=O`, for which the “Toxicity at 30 mg/kg” value in data set [1] is on record as 10 days, none.

With `Nc1cc(Cn2cnc3c(O)c(Cl)cc(Cl)c3c2=O)ccn1`, in data set [3], the viability at 1 uM was found to be 95.1% and the viability at 10 uM came to 93.9%. For the same compound, the “Toxicity at 30 mg/kg” value in data set [1] is 10 days, 1 of 4 deaths.

`O=C(O)Cn1cnc2c(O)c(Cl)cc(Cl)c2c1=O`: in data set [3], the viability at 1 uM was 105% and the viability at 10 uM worked out at 101%. Further, in data set [1], the “Toxicity at 30 mg/kg” value was 10 days, none.

`CCCCc1cnc2c(O)cccn2c1=O`: in data set [3], the viability at 1 uM is 73.6% and the viability at 10 uM turned out to be 37%. Moreover, in data set [1], the “Toxicity at 30 mg/kg” value is reported as 10 days, none.

With `O=C1c2ccccc2C(=O)N1CCn1cnc2c(O)c(I)ccc2c1=O`, in data set [3], the viability at 1 uM was 127% and the viability at 10 uM amounted to 105%.

On to `CCN(CC)CCn1cnc2c(O)c(I)ccc2c1=O`, for which, in data set [3], the viability at 1 uM came out at 106% and the viability at 10 uM worked out at 41.4%.

In the case of `O=c1c2cccc(O)c2ncn1-c1ccc(F)cc1F`, in data set [3], the viability at 1 uM is 104% and the viability at 10 uM came out at 104%.

As for `CCCCNC(=O)c1cnc2c(O)cccn2c1=O`, in data set [3], the viability at 1 uM was 98.8% and the viability at 10 uM was 48.4%.

Regarding `CCN(CC)CCNC(=O)c1cnc2c(O)cccn2c1=O`, in data set [3], the viability at 1 uM was determined as 115% and the viability at 10 uM was determined as 103%.

Turning to `O=C(Nc1nc2ccc(F)cc2s1)c1cnc2c(O)cccn2c1=O`, in data set [3], the viability at 1 uM amounted to 60.1% and the viability at 10 uM came out at 34.2%.

Consider `CCCCc1cnc2c(O)c(I)ccn2c1=O`, for which, in data set [3], the viability at 1 uM stood at 102% and the viability at 10 uM stood at 58.7%. Besides, in data set [1], the “Toxicity at 30 mg/kg” value was 10 days, 2/4 deaths.

Consider `O=c1c2cccc(O)c2ncn1-c1nc2ccccc2[nH]1`, for which, in data set [3], the viability at 1 uM came to 108% and the viability at 10 uM was 103%.

For `Nn1cnc2c(O)c(Cl)cc(Cl)c2c1=O`, in data set [3], the viability at 1 uM was found to be 113% and the viability at 10 uM turned out to be 104%. Further, in data set [2], the viability at 4 days, 1 uM stood at 103% and the viability at 4 days, 10 uM was determined as 101%.

For `O=C1c2ccccc2C(=O)N1CCn1cnc2c(O)c(Cl)cc(Cl)c2c1=O`, in data set [3], the viability at 1 uM was 104% and the viability at 10 uM turned out to be 101%.

As for `O=c1c(-c2ccc(F)cc2)cnc2c(O)cccn12`, in data set [3], the viability at 1 uM came to 75.3% and the viability at 10 uM is 33.8%.

With `CCC(C)Cn1cnc2c(O)c(Cl)cc(Cl)c2c1=O` (stereo not drawn), in data set [3], the viability at 1 uM turned out to be 85.1% and the viability at 10 uM was determined as 39.4%.

For the compound `O=C(Cn1cnc2c(O)cccc2c1=O)Nc1ccccn1`, in data set [3], the viability at 1 uM is 110% and the viability at 10 uM came to 98.2%.

`CCNCCn1cnc2c(O)c(Cl)cc(Cl)c2c1=O`: in data set [3], the viability at 1 uM was found to be 100% and the viability at 10 uM was 107%.

In the case of `O=c1c2c(Cl)cc(Cl)c(O)c2ncn1CCN1Cc2ccccc2C1`, in data set [3], the viability at 1 uM was 103% and the viability at 10 uM turned out to be 62.1%.

`CCCNC(=O)Cn1cnc2c(O)c(I)ccc2c1=O`: in data set [3], the viability at 1 uM came out at 84.3% and the viability at 10 uM is 95.5%.

Consider `CC(C)Cn1c(CN(C)C)nc2c(O)c(Cl)cc(Cl)c2c1=O`, for which, in data set [3], the viability at 1 uM is 104% and the viability at 10 uM worked out at 61.5%.

`CCCCc1cnc2c(O)c(-c3cccnc3)ccn2c1=O`: in data set [3], the viability at 1 uM was 92.1% and the viability at 10 uM was determined as 38.2%.

For the compound `O=c1c(CCCC2CCSS2)cnc2c(O)cccn12` (stereo not drawn), in data set [3], the viability at 1 uM is 106% and the viability at 10 uM was 27.2%.

Take `O=c1c2cccc(O)c2ncn1CCc1ccccn1`: in data set [3], the viability at 1 uM is 107% and the viability at 10 uM is 96.2%.

`O=C1NC(=O)c2cc(-n3cnc4c(O)cccc4c3=O)ccc21`: in data set [3], the viability at 1 uM is 102% and the viability at 10 uM stood at 103%.

Take `Cc1noc(-n2cnc3c(O)c(Cl)cc(Cl)c3c2=O)c1C`: in data set [3], the viability at 1 uM is 99.6% and the viability at 10 uM worked out at 95.4%.

Regarding `O=c1c2c(Cl)cc(Cl)c(O)c2ncn1N1CCCC1`, the “Toxicity at 30 mg/kg” value in data set [1] is listed as 10 days, none. In data set [2], the viability at 4 days, 1 uM came to 101% and the viability at 4 days, 10 uM is 88%.

Take `CCc1cnc2c(O)cccn2c1=O`: in data set [3], the viability at 1 uM was 96.1% and the viability at 10 uM was 27.1%.

Turning to `O=c1c2c(Cl)cc(I)c(O)c2ncn1Cc1ccccn1`, in data set [3], the viability at 1 uM came to 102% and the viability at 10 uM came to 99.2%.

Consider `O=c1c2c(Cl)cc(Cl)c(O)c2nc2n1CCC2`, for which, in data set [3], the viability at 1 uM was 115% and the viability at 10 uM was 93.9%.

Regarding `CCn1cnc2c(O)c(Cl)cc(Cl)c2c1=O`, in data set [3], the viability at 1 uM was determined as 104% and the viability at 10 uM came out at 95.9%. For the same compound, in data set [2], the viability at 4 days, 1 uM was found to be 93% and the viability at 4 days, 10 uM was determined as 58%.

With `CC(C)c1cnc2c(O)c(I)ccn2c1=O`, in data set [3], the viability at 1 uM was 96.7% and the viability at 10 uM is 44.2%. The “Toxicity at 30 mg/kg” value in data set [1] is recorded as 10 days, 1/4 death, remaining 1/3 mild sings.

As to `O=c1c2cccc(O)c2ncn1Cc1ccccc1`, in data set [3], the viability at 1 uM came out at 98.5% and the viability at 10 uM was 90.4%.

In the case of `O=c1c2c(Cl)cc(Cl)c(O)c2ncn1-c1nc2ccccc2s1`, in data set [3], the viability at 1 uM stood at 82.7% and the viability at 10 uM was 63.9%.

Turning to `O=c1c2c(Cl)ccc(O)c2ncn1CC1CC1`, in data set [3], the viability at 1 uM was found to be 86.3% and the viability at 10 uM was 57.6%.

As for `O=c1c2cccc(O)c2ncn1Cc1ccncc1`, in data set [3], the viability at 1 uM is 105% and the viability at 10 uM is 104%.

Consider `O=c1c2c(Cl)ccc(O)c2ncn1Cc1ccccn1`, for which, in data set [3], the viability at 1 uM amounted to 93.6% and the viability at 10 uM is 88.4%.

In the case of `O=C1NC(=O)c2cc(-n3cnc4c(O)c(Cl)cc(Cl)c4c3=O)ccc21`, in data set [3], the viability at 1 uM amounted to 85.4% and the viability at 10 uM came out at 93.3%. Further, in data set [1], the “Toxicity at 30 mg/kg” value is listed as 10 days, none.

For `O=C(NCc1ccc(F)cc1)c1cnc2c(O)c(I)ccn2c1=O`, in data set [3], the viability at 1 uM was 89.6% and the viability at 10 uM was 23.4%. The “Toxicity at 30 mg/kg” value in data set [1] is reported as 7 days, 4/4 deaths.

With `CCCCCn1cnc2c(O)c(Cl)cc(Cl)c2c1=O`, in data set [3], the viability at 1 uM is 81.3% and the viability at 10 uM was 56.8%.

`O=C(NCc1ccc(F)cc1)c1cnc2c(O)cccn2c1=O`: in data set [3], the viability at 1 uM amounted to 76.7% and the viability at 10 uM stood at 54.2%.

Consider `CCc1cnc2c(O)cccn2c1=S`, for which, in data set [3], the viability at 1 uM came to 93.3% and the viability at 10 uM amounted to 73.7%.

Turning to `Cc1nc2ccccc2c(=O)n1O`, in data set [3], the viability at 1 uM was 101% and the viability at 10 uM amounted to 115%.

With `O=c1c2c(Cl)cc(I)c(O)c2ncn1-c1cccnc1`, in data set [3], the viability at 1 uM is 97.4% and the viability at 10 uM was 95%.

On to `CCCCc1cnc2c(O)c(-c3cccc(OC)c3)ccn2c1=O`, for which, in data set [3], the viability at 1 uM amounted to 94.5% and the viability at 10 uM is 59.1%.

With `O=c1c2cccc(O)c2ncn1-c1nc2ccc(F)cc2s1`, in data set [3], the viability at 1 uM stood at 99.1% and the viability at 10 uM was 73.7%.

For `COc1ccc(-n2cnc3c(O)cccc3c2=O)cn1`, in data set [3], the viability at 1 uM worked out at 97.8% and the viability at 10 uM is 110%.

Regarding `CCC(C)Cn1cnc2c(O)cccc2c1=O` (stereo not drawn), in data set [3], the viability at 1 uM is 103% and the viability at 10 uM is 47.2%.

Regarding `O=c1c2cccc(O)c2ncn1Cc1ccc(F)cc1`, in data set [3], the viability at 1 uM was 97.2% and the viability at 10 uM was 60.5%.
